# Test results published in PubChem BioAssay AID493250 (Broad Institute, 2011).
# Active and inactive are the calls of the source.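 The calls were made as follows: active = signal decrease with fitted half-maximal dose at or below ten times the highest valid tested dose; inconclusive = poor fit, or flat fit at 30 to 70% inhibition; inactive = the rest.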
# Biological target: Zinc finger protein mex-5 (Caenorhabditis elegans) (UniProt Q9XUB2)
# Test: MEX-5 zinc finger-RNA interaction blockers – biochemical, fluorescence polarization, C. elegans, cherry-picked, round 3, dose response (AID 493250)
# Conditions: purified MEX-5-MBP, FITC-TCR2 RNA fluorescence polarization; at 10 µM (top of the series)
# Zinc finger protein mex-5 (Caenorhabditis elegans), sequence (Q9XUB2 whole entry, looked up): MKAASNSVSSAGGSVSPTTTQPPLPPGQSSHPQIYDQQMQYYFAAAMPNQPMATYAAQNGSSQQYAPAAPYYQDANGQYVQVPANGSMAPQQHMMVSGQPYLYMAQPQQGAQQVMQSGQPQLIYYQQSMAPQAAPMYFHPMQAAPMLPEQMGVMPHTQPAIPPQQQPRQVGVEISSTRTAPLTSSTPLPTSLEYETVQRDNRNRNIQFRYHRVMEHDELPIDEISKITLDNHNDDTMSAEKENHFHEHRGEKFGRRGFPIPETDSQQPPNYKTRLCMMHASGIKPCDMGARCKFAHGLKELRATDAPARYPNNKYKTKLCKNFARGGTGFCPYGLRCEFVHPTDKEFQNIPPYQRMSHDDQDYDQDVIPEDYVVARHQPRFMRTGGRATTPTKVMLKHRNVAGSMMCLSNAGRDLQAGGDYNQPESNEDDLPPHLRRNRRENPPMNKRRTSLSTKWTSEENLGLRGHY
row,Compound,"activity change, negative = inhibition"
1,Cc1cc(C)c[n+](-c2[nH]c(=O)sc2/C=N/N=C(\N)[S-])c1,inactive
2,O=C(NC1CCSc2ccccc21)c1ccccc1Br (centres undefined),inactive
3,CC1=Nc2ccc(C)cc2/C1=C/c1c(N)n2c(S(=O)(=O)C(C)C)nsc2nc1=O,inactive
4,O=C(NN=C1C2CC3CC1CC(Cl)(C3)C2)c1ccccn1,inactive
5,CCOc1cc(/C=N/Nc2nc(=O)[nH]nc2C)ccc1O,inactive
6,Cc1ccc(C(=O)N/C(=C\c2ccc(-c3ccccc3[N+](=O)[O-])o2)C(=O)NCCN(C)C)cc1,inactive
7,CCNC(=S)NNC(=O)c1ccccn1,inactive
8,CCc1ccc(S(=O)(=O)/N=C2\C=C(Nc3ccc(C(=O)O)cc3)C(=O)c3ccccc32)cc1,inactive
9,COc1cccc(NC(=S)NNC(=O)C(C)n2nc(C)c([N+](=O)[O-])c2C)c1 (centres undefined),inactive
10,COC(=O)c1ccc(CC(=O)c2ccc(O)cc2O)o1,inactive
11,O=C(Cc1csc(N2CCOCC2)n1)N/N=C/c1ccc(O)c(O)c1O,inactive
12,COc1ccc(CCNc2c3ccccc3nc3ccccc23)cc1OC,inactive
13,Cn1ncc2c(NNC(=O)c3ccccc3Cl)ncnc21,inactive
14,O=c1[nH]nc(CNc2ccc(Cl)cc2Cl)c2ccccc12,inactive
15,CCOC(=O)c1cnc2c(N=Nc3ccccc3)c(N)nn2c1N,inactive
16,NC(=S)N=Nc1c(O)[nH]c2ccccc12,inactive
17,COc1ccc(C[C@@H]2c3cc(O)c(OC)cc3CCN2C)cc1O,inactive
18,O=C1c2cccc3cccc(c23)C(=O)N1Cc1ccccc1,inactive
19,O=C(NNc1ccccc1)C(=O)NNS(=O)(=O)c1ccc(CCCl)cc1,inactive
20,Cc1cc(C(=O)N/N=C/c2ccc(-c3ccc(C)c(Cl)c3)o2)n[nH]1,inactive
21,COc1cccc(/C=N/NC(=O)N/N=C/c2cccc(OC)c2O)c1O,inactive
22,CCN(CC)c1ccc(C(=O)N/N=C(\C)c2cccnc2)cc1,inactive
23,O=C(N/N=C/c1cccnc1)c1ccc(O)cc1,inactive
24,Cc1ccc(C)c(NC(=O)CCC(=O)NNC(=S)Nc2ccccc2)c1,inactive
25,Cc1cccn2c(=O)c3cc(C(=O)NC(C)C)c(=N)n(Cc4ccncc4)c3nc12,inactive

row,Compound,"activity change, negative = inhibition"
1,CCc1ccc(S(=O)(=O)Nc2ccc(O)c3c(=O)cc(-c4ccccc4Cl)oc23)cc1,inactive
2,O=C(O)CC1S/C(=N/N=C/c2ccc(-c3ccccc3[N+](=O)[O-])o2)NC1=O (centres undefined),inactive
3,Cn1c(C2=C(O)CN(c3ccccc3)C2=N)nc2ccccc21,inactive
4,O=c1nc(-c2ccccc2)c2cc(Br)ccc2[nH]1,inactive
5,NC(=O)c1cccc2cc3ccccc3cc12,inactive
6,Nc1ccc(Cc2ccc(N)c(C(=O)O)c2)cc1C(=O)O,inactive
7,O=C(N/N=C/c1c(O)n(Cc2ccco2)c(=O)[nH]c1=O)c1ccccc1,inactive
8,O=C(CCc1ccccc1)N/N=C\c1cc2c(cc1Br)OCO2,inactive
9,COc1cc2c(cc1O)CC1c3c(cc(O)c(OC)c3-2)CCN1C (centres undefined),inactive
10,CCOC(=O)C1CSc2[nH]c(=O)sc2C1c1ccccc1 (centres undefined),inactive
11,COc1ccc(-c2csc(Nc3ccc(S(N)(=O)=O)cc3)n2)cc1OC,inactive
12,COc1ccc(NCc2cccnc2)cc1,inactive
13,COC(=O)c1ccc(CC(=O)c2c(C)cc(O)cc2O)o1,inactive
14,O=C(O)c1ccc(NC2=C(Cl)C(=O)c3ccccc3C2=O)cc1,inactive
15,O=C(N/N=C/c1cccnc1)c1ccccc1,inactive
16,CCOc1cc(/C=N/n2c(C)nc3ccccc3c2=O)ccc1O,inactive
17,FC(F)(F)c1ccc(Cl)c(-n2c(-c3cc(-c4ccco4)[nH]n3)n[nH]c2=S)c1,inactive
18,Nc1ccc([N+](=O)[O-])cc1C(=O)NNC(=O)c1ccco1,inactive
19,O=C(Nc1nccs1)c1ccc(-c2ccc(Cl)cc2)o1,inactive
20,Cc1c(CN2CCCC(C)C2)c(O)n(CCO)c(=O)c1C#N (centres undefined),inactive
21,O=C(CSc1nnc(COc2ccccc2)o1)Nc1nccs1,inactive
22,CC1CN2C(c3ccc(Cl)cc3)=CSC2=N1 (centres undefined),inactive
23,O=c1[nH]cnc2c1C(c1ccccc1)c1c(nc[nH]c1=O)O2,inactive
24,COc1ccc(C2c3sc(=O)[nH]c3SCC2C(N)=O)cc1 (centres undefined),inactive
